Reference: PubChem BioAssay (NCI)
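48-hour exposure; five concentrations; linearly interpolated endpoints. The concentration for full growth arrest is given as TGI.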

How the values were obtained:
Assay in all cases: growth of human tumour cells (NCI), 48 h
SNB-75 CNS = test system: SNB-75 CNS
HCC-2998 colon = test system: HCC-2998 colon
ACHN renal = test system: ACHN renal
RXF 393 renal = test system: RXF 393 renal
IGROV1 ovarian = test system: IGROV1 ovarian
CAKI-1 renal = test system: CAKI-1 renal
UACC-62 melanoma = test system: UACC-62 melanoma
MCF7 breast = test system: MCF7 breast
SK-OV-3 ovarian = test system: SK-OV-3 ovarian
PC-3 prostate = test system: PC-3 prostate
MALME-3M melanoma = test system: MALME-3M melanoma
EKVX NSCLC = test system: EKVX NSCLC
OVCAR-8 ovarian = test system: OVCAR-8 ovarian
HCT-116 colon = test system: HCT-116 colon
OVCAR-5 ovarian = test system: OVCAR-5 ovarian
HOP-92 NSCLC = test system: HOP-92 NSCLC
UO-31 renal = test system: UO-31 renal
SK-MEL-2 melanoma = test system: SK-MEL-2 melanoma
SW-620 colon = test system: SW-620 colon
HT29 colon = test system: HT29 colon
MDA-MB-435 = test system: MDA-MB-435
OVCAR-4 ovarian = test system: OVCAR-4 ovarian
SF-268 CNS = test system: SF-268 CNS
LOX IMVI melanoma = test system: LOX IMVI melanoma
MOLT-4 leukemia = test system: MOLT-4 leukemia
SK-MEL-5 melanoma = test system: SK-MEL-5 melanoma
COLO 205 colon = test system: COLO 205 colon
K-562 leukemia = test system: K-562 leukemia
786-0 renal = test system: 786-0 renal
SN12C renal = test system: SN12C renal
T-47D breast = test system: T-47D breast
OVCAR-3 ovarian = test system: OVCAR-3 ovarian
M14 melanoma = test system: M14 melanoma
RPMI-8226 leukemia = test system: RPMI-8226 leukemia
TK-10 renal = test system: TK-10 renal
A549 NSCLC = test system: A549 NSCLC
NCI-H460 lung = test system: NCI-H460 lung
MDA-N = test system: MDA-N
BT-549 breast = test system: BT-549 breast
UACC-257 melanoma = test system: UACC-257 melanoma
SF-539 CNS = test system: SF-539 CNS
HS 578T breast = test system: HS 578T breast
SR leukemia = test system: SR leukemia
HCT-15 colon = test system: HCT-15 colon
KM12 colon = test system: KM12 colon
U251 CNS = test system: U251 CNS
SK-MEL-28 melanoma = test system: SK-MEL-28 melanoma
CCRF-CEM leukemia = test system: CCRF-CEM leukemia
HL-60(TB) leukemia = test system: HL-60(TB) leukemia
NCI-H23 lung = test system: NCI-H23 lung
SNB-19 CNS = test system: SNB-19 CNS
A498 renal = test system: A498 renal
NCI/ADR-RES ovarian = test system: NCI/ADR-RES ovarian
HOP-62 NSCLC = test system: HOP-62 NSCLC
NCI-H522 lung = test system: NCI-H522 lung
NCI-H226 lung = test system: NCI-H226 lung
SF-295 CNS = test system: SF-295 CNS
DU-145 prostate = test system: DU-145 prostate
MDA-MB-231 breast = test system: MDA-MB-231 breast

SMILES: O=C1CC(=O)c2c(N3CCCC3)sc(N3CCCC3)c21
- TGI (SNB-75 CNS): > 100 µM
- TGI (HCC-2998 colon): > 100 µM
- TGI (ACHN renal): > 100 µM
- TGI (RXF 393 renal): > 100 µM
- TGI (IGROV1 ovarian): > 100 µM
- TGI (CAKI-1 renal): > 100 µM
- TGI (UACC-62 melanoma): > 100 µM
- TGI (MCF7 breast): > 100 µM
- TGI (SK-OV-3 ovarian): > 100 µM
- TGI (PC-3 prostate): > 100 µM
- TGI (MALME-3M melanoma): > 100 µM
- TGI (EKVX NSCLC): > 100 µM
- TGI (OVCAR-8 ovarian): > 100 µM
- TGI (HCT-116 colon): > 100 µM
- TGI (OVCAR-5 ovarian): > 100 µM
- TGI (HOP-92 NSCLC): > 100 µM
- TGI (UO-31 renal): > 100 µM
- TGI (SK-MEL-2 melanoma): > 100 µM
- TGI (SW-620 colon): > 100 µM
- TGI (HT29 colon): > 100 µM
- TGI (MDA-MB-435): > 100 µM
- TGI (OVCAR-4 ovarian): > 100 µM
- TGI (SF-268 CNS): > 100 µM
- TGI (LOX IMVI melanoma): > 100 µM
- TGI (MOLT-4 leukemia): > 100 µM
- TGI (SK-MEL-5 melanoma): > 100 µM
- TGI (COLO 205 colon): > 100 µM
- TGI (K-562 leukemia): > 100 µM
- TGI (786-0 renal): > 100 µM
- TGI (SN12C renal): > 100 µM
- TGI (T-47D breast): > 100 µM
- TGI (OVCAR-3 ovarian): > 100 µM
- TGI (M14 melanoma): > 100 µM
- TGI (RPMI-8226 leukemia): > 100 µM
- TGI (TK-10 renal): > 100 µM
- TGI (A549 NSCLC): > 100 µM
- TGI (NCI-H460 lung): > 100 µM
- TGI (MDA-N): > 100 µM
- TGI (BT-549 breast): > 100 µM
- TGI (UACC-257 melanoma): > 100 µM
- TGI (SF-539 CNS): > 100 µM
- TGI (HS 578T breast): > 100 µM
- TGI (SR leukemia): > 100 µM
- TGI (HCT-15 colon): > 100 µM
- TGI (KM12 colon): > 100 µM
- TGI (U251 CNS): > 100 µM
- TGI (SK-MEL-28 melanoma): > 100 µM
- TGI (CCRF-CEM leukemia): > 100 µM
- TGI (HL-60(TB) leukemia): > 100 µM
- TGI (NCI-H23 lung): > 100 µM
- TGI (SNB-19 CNS): > 100 µM
- TGI (A498 renal): > 100 µM
- TGI (NCI/ADR-RES ovarian): > 100 µM
- TGI (HOP-62 NSCLC): > 100 µM
- TGI (NCI-H522 lung): > 100 µM
- TGI (NCI-H226 lung): > 100 µM
- TGI (SF-295 CNS): > 100 µM
- TGI (DU-145 prostate): > 100 µM

SMILES: N#CC1=C(N)OC2=C(CCCc3ccc([N+](=O)[O-])cc32)C1c1ccccc1 (stereo not given)
- TGI (SNB-75 CNS): > 100 µM
- TGI (HCC-2998 colon): 6.41 µM
- TGI (ACHN renal): 45.2 µM
- TGI (RXF 393 renal): 8.88 µM
- TGI (IGROV1 ovarian): 23.7 µM
- TGI (CAKI-1 renal): > 100 µM
- TGI (UACC-62 melanoma): 6.12 µM
- TGI (MCF7 breast): 15.2 µM
- TGI (SK-OV-3 ovarian): 58.5 µM
- TGI (PC-3 prostate): 44.7 µM
- TGI (MALME-3M melanoma): 20.6 µM
- TGI (EKVX NSCLC): 35.2 µM
- TGI (OVCAR-8 ovarian): 22.4 µM
- TGI (HCT-116 colon): 16 µM
- TGI (OVCAR-5 ovarian): 43.1 µM
- TGI (HOP-92 NSCLC): 44.9 µM
- TGI (UO-31 renal): 20.9 µM
- TGI (SK-MEL-2 melanoma): 34.1 µM
- TGI (SW-620 colon): 15.7 µM
- TGI (HT29 colon): 12.2 µM
- TGI (OVCAR-4 ovarian): > 100 µM
- TGI (SF-268 CNS): 21.9 µM
- TGI (LOX IMVI melanoma): 19.6 µM
- TGI (MOLT-4 leukemia): 18.7 µM
- TGI (SK-MEL-5 melanoma): 13 µM
- TGI (COLO 205 colon): 13.7 µM
- TGI (K-562 leukemia): 13.8 µM
- TGI (786-0 renal): 26.9 µM
- TGI (SN12C renal): 20.4 µM
- TGI (T-47D breast): 30.5 µM
- TGI (OVCAR-3 ovarian): 6.33 µM
- TGI (M14 melanoma): 12.4 µM
- TGI (RPMI-8226 leukemia): 10.9 µM
- TGI (TK-10 renal): 49.1 µM
- TGI (A549 NSCLC): > 100 µM
- TGI (NCI-H460 lung): 23.1 µM
- TGI (MDA-N): 5.38 µM
- TGI (BT-549 breast): 29.7 µM
- TGI (UACC-257 melanoma): 24.6 µM
- TGI (SF-539 CNS): 12.7 µM
- TGI (HS 578T breast): > 100 µM
- TGI (SR leukemia): 9.56 µM
- TGI (MDA-MB-231 breast): > 100 µM
- TGI (HCT-15 colon): 16.7 µM
- TGI (KM12 colon): 14.8 µM
- TGI (U251 CNS): 17.5 µM
- TGI (SK-MEL-28 melanoma): 22.4 µM
- TGI (HL-60(TB) leukemia): 4.19 µM
- TGI (NCI-H23 lung): 36 µM
- TGI (SNB-19 CNS): 45.2 µM
- TGI (A498 renal): 10.5 µM
- TGI (NCI/ADR-RES ovarian): 7.45 µM
- TGI (HOP-62 NSCLC): 17.4 µM
- TGI (NCI-H522 lung): 10.9 µM
- TGI (NCI-H226 lung): 31 µM
- TGI (SF-295 CNS): 13.9 µM
- TGI (DU-145 prostate): 15.4 µM
